Where two headings read alike, the source gives them in different places.
Experiments:
Test in all cases: KINOMEscan (ScanMAX) kinase profiling
Type in all cases: binding
[1] = molecular target: T1, panel of 468 kinases (Homo sapiens, UniProt O75676); conditions: 1 μM, read-out: % control
T1 construct: purchased KINOMEscan (ScanMAX) service

[2] = molecular target: T2, panel of 468 kinases (Homo sapiens, UniProt O00750); conditions: PIK3C2B; 1 μM; read-out: % control
T2 construct: purchased KINOMEscan (ScanMAX) service
T2 sequence (O00750 whole entry): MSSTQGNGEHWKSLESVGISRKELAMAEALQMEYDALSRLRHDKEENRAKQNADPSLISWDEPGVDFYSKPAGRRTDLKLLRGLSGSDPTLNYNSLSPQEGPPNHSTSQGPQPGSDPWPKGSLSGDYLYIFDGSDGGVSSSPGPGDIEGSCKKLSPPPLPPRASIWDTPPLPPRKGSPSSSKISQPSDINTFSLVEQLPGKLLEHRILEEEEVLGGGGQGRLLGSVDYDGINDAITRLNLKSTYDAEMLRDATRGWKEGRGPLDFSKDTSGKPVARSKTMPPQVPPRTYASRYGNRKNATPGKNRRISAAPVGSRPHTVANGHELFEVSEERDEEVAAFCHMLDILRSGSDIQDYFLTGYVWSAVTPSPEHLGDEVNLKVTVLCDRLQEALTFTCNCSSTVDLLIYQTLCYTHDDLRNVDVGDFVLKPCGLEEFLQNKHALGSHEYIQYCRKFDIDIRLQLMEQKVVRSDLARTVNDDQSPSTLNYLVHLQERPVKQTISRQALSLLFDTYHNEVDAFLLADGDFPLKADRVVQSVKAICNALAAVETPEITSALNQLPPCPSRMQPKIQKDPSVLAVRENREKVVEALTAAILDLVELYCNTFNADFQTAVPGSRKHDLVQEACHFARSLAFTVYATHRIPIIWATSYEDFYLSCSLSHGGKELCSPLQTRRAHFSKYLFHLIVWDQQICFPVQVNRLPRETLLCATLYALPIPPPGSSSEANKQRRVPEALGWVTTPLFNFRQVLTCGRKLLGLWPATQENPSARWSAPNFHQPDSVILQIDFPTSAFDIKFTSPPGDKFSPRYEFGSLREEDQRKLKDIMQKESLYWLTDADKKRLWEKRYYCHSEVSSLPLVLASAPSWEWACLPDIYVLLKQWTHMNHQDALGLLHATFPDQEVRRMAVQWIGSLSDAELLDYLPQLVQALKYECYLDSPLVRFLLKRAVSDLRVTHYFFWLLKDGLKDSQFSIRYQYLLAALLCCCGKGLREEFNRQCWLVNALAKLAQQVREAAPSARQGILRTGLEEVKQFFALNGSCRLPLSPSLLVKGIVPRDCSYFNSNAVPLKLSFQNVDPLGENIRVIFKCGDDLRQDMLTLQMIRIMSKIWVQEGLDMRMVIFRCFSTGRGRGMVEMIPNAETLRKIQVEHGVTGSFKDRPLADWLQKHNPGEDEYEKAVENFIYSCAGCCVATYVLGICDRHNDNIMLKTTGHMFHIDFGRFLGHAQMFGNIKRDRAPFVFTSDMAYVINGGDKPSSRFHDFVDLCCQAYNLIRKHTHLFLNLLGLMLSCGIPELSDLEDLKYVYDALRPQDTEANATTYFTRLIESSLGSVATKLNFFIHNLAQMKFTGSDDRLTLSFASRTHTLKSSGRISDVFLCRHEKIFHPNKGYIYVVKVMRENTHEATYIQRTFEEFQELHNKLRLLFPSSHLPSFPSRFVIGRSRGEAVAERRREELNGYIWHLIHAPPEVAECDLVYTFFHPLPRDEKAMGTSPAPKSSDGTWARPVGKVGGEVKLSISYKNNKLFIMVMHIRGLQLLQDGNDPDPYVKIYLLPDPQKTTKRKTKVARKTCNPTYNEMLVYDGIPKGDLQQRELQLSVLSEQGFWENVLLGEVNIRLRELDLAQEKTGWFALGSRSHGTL

[3] = molecular target: T3, panel of 468 kinases (Homo sapiens, UniProt Q13554); conditions: CAMK2B; 1 μM; read-out: % control
T3 construct: purchased KINOMEscan (ScanMAX) service

[4] = molecular target: T4, panel of 468 kinases (Homo sapiens, UniProt Q9BUB5); conditions: MKNK1; 1 μM; read-out: % control
T4 construct: purchased KINOMEscan (ScanMAX) service
T4 sequence (Q9BUB5 whole entry): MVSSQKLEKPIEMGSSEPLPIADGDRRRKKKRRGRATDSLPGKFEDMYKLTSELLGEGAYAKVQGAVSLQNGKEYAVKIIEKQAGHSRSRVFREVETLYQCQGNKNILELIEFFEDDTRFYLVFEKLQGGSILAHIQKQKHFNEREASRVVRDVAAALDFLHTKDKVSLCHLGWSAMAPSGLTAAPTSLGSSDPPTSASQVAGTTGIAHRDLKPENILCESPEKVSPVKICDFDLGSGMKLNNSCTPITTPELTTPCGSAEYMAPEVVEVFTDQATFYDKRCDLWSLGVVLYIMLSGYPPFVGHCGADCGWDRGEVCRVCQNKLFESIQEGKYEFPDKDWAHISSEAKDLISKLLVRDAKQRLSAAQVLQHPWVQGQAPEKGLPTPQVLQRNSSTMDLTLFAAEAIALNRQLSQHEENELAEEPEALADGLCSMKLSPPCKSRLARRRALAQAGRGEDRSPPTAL

[5] = molecular target: T5, panel of 468 kinases (Homo sapiens, UniProt P36888, K663Q); conditions: FLT3(K663Q); 1 μM; read-out: % control
T5 construct: purchased KINOMEscan (ScanMAX) service
T5 sequence (P36888 27-993 K663Q): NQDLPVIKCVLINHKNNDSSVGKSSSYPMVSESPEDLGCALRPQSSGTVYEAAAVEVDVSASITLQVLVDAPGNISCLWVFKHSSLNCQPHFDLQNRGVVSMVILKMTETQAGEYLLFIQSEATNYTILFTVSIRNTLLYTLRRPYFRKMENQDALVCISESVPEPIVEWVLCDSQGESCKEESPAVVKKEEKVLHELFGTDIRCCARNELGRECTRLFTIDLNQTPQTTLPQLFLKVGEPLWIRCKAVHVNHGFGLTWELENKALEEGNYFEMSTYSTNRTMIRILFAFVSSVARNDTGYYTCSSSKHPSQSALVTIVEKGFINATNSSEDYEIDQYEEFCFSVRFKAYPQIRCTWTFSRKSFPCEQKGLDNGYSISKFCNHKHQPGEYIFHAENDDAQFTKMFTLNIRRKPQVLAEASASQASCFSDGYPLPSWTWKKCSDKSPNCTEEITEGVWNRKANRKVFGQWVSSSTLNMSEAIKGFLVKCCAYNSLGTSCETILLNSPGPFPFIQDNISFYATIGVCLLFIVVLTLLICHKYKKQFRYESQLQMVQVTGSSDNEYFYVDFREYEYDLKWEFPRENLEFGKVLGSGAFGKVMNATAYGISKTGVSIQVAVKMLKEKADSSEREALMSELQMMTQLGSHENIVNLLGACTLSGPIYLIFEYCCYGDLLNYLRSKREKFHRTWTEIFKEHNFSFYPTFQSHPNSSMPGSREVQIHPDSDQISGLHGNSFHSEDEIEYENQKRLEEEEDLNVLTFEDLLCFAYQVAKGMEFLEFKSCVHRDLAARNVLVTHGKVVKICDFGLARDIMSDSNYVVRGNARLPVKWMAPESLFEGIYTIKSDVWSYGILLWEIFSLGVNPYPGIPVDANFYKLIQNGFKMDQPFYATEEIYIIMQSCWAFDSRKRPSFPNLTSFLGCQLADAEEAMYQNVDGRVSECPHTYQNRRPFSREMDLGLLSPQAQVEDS

[6] = molecular target: T6, panel of 468 kinases (Homo sapiens, UniProt P19525); conditions: PRKR; 1 μM; read-out: % control
T6 construct: purchased KINOMEscan (ScanMAX) service

[7] = molecular target: T7, panel of 468 kinases (Homo sapiens, UniProt P07949, V804M); conditions: RET(V804M); 1 μM; read-out: % control
T7 construct: purchased KINOMEscan (ScanMAX) service
T7 sequence (P07949 29-1114 V804M): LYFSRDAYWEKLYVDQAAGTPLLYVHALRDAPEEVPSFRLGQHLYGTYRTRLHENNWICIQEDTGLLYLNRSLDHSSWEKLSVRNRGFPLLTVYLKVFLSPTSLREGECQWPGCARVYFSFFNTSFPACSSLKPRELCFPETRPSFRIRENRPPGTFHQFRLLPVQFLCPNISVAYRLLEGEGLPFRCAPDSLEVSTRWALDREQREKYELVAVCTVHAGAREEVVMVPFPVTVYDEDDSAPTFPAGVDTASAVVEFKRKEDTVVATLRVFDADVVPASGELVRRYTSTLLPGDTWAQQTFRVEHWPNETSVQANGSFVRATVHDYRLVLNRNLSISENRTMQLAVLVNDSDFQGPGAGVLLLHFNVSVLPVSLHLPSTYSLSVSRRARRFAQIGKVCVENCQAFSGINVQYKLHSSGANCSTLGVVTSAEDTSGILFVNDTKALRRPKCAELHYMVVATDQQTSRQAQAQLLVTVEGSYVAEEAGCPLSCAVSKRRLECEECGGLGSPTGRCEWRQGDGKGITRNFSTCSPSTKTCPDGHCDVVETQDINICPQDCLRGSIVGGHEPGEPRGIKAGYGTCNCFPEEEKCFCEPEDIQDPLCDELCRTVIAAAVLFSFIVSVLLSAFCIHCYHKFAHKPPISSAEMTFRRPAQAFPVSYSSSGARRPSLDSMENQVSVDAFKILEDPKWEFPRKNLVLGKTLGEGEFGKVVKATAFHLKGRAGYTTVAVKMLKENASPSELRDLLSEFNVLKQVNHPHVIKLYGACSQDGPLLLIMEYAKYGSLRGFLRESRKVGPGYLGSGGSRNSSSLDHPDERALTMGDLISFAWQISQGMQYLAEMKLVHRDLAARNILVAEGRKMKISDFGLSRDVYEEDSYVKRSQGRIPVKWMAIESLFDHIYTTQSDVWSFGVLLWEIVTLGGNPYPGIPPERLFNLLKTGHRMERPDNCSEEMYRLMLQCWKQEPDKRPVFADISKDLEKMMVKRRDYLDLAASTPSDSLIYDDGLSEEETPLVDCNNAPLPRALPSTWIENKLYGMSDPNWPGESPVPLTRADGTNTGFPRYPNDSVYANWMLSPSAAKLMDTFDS

[8] = molecular target: T8, panel of 468 kinases (Homo sapiens, UniProt Q9H4B4); conditions: PLK3; 1 μM; read-out: % control
T8 construct: purchased KINOMEscan (ScanMAX) service

[9] = molecular target: T9, panel of 468 kinases (Homo sapiens, UniProt O75460); conditions: ERN1; 1 μM; read-out: % control
T9 construct: purchased KINOMEscan (ScanMAX) service
T9 sequence (O75460 19-977): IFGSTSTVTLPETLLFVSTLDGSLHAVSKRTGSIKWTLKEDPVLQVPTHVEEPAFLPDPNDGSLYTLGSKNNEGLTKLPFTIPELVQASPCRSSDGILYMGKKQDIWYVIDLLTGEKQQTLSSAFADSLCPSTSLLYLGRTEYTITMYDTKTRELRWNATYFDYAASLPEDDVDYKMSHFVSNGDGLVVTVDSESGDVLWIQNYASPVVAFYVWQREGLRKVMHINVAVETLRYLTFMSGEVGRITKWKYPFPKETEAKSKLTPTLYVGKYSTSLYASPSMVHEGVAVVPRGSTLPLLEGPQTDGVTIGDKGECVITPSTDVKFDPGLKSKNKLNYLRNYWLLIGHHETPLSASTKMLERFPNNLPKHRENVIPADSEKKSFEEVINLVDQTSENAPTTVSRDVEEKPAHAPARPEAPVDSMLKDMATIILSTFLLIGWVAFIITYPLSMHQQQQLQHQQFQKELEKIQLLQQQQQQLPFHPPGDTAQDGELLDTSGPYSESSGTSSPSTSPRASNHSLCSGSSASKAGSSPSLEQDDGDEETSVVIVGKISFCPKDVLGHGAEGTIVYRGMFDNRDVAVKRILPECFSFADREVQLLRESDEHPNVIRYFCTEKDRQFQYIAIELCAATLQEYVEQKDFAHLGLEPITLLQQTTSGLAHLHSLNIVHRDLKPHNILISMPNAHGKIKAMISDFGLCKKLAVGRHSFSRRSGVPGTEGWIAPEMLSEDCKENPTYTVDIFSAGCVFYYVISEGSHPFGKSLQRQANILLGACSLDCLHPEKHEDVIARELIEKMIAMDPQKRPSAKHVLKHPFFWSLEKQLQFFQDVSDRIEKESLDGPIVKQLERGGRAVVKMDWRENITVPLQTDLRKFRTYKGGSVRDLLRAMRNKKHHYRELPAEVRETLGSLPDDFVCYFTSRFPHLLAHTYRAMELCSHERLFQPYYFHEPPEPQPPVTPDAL

[10] = molecular target: T10, panel of 468 kinases (Homo sapiens, UniProt P31751); conditions: AKT2; 1 μM; read-out: % control
T10 construct: purchased KINOMEscan (ScanMAX) service

[11] = molecular target: T11, panel of 468 kinases (Homo sapiens, UniProt Q02156); conditions: PRKCE; 1 μM; read-out: % control
T11 construct: purchased KINOMEscan (ScanMAX) service
T11 sequence (Q02156 1-737): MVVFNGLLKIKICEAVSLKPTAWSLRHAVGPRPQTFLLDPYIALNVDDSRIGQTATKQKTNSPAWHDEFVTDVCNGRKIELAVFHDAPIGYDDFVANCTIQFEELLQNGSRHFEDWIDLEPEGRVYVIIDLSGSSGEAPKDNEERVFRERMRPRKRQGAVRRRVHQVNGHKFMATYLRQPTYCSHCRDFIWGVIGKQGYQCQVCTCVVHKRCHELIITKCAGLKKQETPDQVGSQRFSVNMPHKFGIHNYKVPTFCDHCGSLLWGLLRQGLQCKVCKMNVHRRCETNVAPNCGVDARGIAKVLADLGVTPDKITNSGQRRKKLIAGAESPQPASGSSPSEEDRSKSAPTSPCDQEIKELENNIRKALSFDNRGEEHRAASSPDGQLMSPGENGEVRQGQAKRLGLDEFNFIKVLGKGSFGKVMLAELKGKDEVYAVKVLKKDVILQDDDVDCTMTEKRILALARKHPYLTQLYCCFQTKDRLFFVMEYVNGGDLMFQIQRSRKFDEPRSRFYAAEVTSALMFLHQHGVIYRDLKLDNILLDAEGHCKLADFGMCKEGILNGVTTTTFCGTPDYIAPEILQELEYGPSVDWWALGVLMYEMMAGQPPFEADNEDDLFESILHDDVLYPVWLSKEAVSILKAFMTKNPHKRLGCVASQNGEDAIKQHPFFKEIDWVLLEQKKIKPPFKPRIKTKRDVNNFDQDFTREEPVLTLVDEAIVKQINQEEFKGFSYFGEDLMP

[12] = molecular target: T12, panel of 468 kinases (Homo sapiens, UniProt O96017); conditions: CHEK2; 1 μM; read-out: % control
T12 construct: purchased KINOMEscan (ScanMAX) service
T12 sequence (O96017 whole entry): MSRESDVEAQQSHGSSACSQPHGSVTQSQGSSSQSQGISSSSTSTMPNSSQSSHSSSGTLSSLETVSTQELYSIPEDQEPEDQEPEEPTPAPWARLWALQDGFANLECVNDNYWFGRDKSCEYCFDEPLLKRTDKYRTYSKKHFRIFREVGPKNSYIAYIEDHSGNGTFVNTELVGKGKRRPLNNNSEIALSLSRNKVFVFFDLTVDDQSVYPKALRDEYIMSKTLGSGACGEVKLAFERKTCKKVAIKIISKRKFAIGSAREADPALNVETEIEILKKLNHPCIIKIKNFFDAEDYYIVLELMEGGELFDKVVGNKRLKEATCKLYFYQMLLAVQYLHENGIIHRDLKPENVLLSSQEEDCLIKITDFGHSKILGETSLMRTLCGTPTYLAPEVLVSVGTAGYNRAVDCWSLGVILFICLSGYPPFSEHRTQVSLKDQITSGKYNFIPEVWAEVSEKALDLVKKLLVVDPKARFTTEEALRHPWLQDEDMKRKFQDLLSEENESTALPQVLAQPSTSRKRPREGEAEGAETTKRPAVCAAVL

Structure (SMILES) | remaining binding at 1 µM ([1]; RPS6KA4(Kin.Dom.1-N-terminal)) | remaining binding at 1 µM ([1]; RPS6KA4(Kin.Dom.2-C-terminal)) | remaining binding at 1 µM [2] | remaining binding at 1 µM [3] | remaining binding at 1 µM [4] | remaining binding at 1 µM [5] | remaining binding at 1 µM [6] | remaining binding at 1 µM [7] | remaining binding at 1 µM [8] | remaining binding at 1 µM [9] | remaining binding at 1 µM [10] | remaining binding at 1 µM [11] | remaining binding at 1 µM [12]
CNc1nc(Nc2ccc(S(=O)(=O)N3CCC(N4CCOCC4)CC3)cc2OC)nc2[nH]cc(Cl)c12 [Compound 12, 5-chloro-N2-(2-methoxy-4-((4-morpholinopiperidin-1-yl)sulfonyl)phenyl)-N4-methyl-7H-pyrrolo[2,3-d]pyrimidine-2,4-diamine] | 100% | 13% | 100% | 100% | 100% | 100% | 100% | 96% | 100% | 67% | 100% | 62% | 1.8%
CNc1nc(Nc2ccc(C(=O)N3CCC(N4CCOCC4)CC3)c3c2OCO3)nc2[nH]cc(Cl)c12 [Compound 75, (7-((5-chloro-4-(methylamino)-7H-pyrrolo[2,3-d]pyrimidin-2-yl)amino)benzo[d][1,3]dioxol-4-yl)(4-morpholinopiperidin-1-yl)methanone] | 89% | 3.9% | 100% | 94% | 100% | 72% | 100% | 33% | 100% | 73% | 100% | 73% | 0.95%
CNc1nc(Nc2ccc(P3(=O)CCN(C4CCOCC4)CC3)cc2OC)nc2[nH]cc(Cl)c12 [Compound 77, 4-(4-((5-chloro-4-(methylamino)-7H-pyrrolo[2,3-d]pyrimidin-2-yl)amino)-3-methoxyphenyl)-1-(tetrahydro-2H-pyran-4-yl)-1,4-azaphosphinane 4-oxide] | 100% | 0.7% | 96% | 92% | 100% | 99% | 100% | 97% | 96% | 60% | 100% | 87% | 0.7%
